Two compounds from ChEMBL document CHEMBL4376804, “Review of Transient Receptor Potential Canonical (TRPC5) Channel Modulators and Diseases” (J Med Chem, 2019) can be followed below.

Each structure is given as a SMILES string. A value given as a limit tells only on which side of the number the result lay.

The target of test [1] is T1, Short transient receptor potential channel 5 (Mus musculus, UniProt Q9QX29).
T1 sequence (Q9QX29 whole entry): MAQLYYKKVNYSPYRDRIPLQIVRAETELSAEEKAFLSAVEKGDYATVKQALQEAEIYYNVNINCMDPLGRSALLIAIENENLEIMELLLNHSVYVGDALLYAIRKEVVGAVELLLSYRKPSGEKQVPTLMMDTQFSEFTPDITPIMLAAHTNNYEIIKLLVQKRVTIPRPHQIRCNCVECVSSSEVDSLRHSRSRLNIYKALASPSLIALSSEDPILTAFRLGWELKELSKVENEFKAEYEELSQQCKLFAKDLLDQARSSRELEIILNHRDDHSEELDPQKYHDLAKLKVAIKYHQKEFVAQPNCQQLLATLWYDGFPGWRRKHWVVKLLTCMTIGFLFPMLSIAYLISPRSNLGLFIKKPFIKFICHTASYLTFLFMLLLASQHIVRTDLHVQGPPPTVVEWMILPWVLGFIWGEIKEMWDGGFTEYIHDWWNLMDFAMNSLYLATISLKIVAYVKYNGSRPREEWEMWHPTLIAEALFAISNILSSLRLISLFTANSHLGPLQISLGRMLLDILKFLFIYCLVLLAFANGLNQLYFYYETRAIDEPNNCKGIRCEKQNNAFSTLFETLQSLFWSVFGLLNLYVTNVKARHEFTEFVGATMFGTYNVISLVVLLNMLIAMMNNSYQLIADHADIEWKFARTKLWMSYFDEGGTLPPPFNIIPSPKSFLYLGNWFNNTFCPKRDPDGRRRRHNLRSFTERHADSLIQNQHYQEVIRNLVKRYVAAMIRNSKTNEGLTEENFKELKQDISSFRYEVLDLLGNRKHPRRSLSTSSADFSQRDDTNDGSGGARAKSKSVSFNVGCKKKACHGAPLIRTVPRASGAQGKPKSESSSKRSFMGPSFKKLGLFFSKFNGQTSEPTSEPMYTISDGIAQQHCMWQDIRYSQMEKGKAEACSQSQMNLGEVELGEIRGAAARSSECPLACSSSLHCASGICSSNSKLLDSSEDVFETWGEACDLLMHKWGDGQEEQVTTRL
Briefly: Inhibition of mouse TRPC5 expressed in thapsigargin treated HEK293/TREx cells assessed as reduction in intracellular calcium level in presence of GPCR agonist by fluorescence method. It is filed as cell-based. In general terms: A change in cytosolic calcium serves as a functional read-out for many receptors and channels.

Test [2] in a line: Selectivity ratio of IC50 for YFP-tagged human TRPC3 expressed in thapsigargin treated HEK293 cells to IC50 for mouse TRPC5 expressed in thapsigargin treated HEK293/TREx cells. It is filed as cell-based.
A short description of test [3]: Selectivity ratio of IC50 for YFP-tagged human TRPC6 expressed in thapsigargin treated HEK293 cells to IC50 for mouse TRPC5 expressed in thapsigargin treated HEK293/TREx cells. The test is classed as cell-based.
The species named for test [4] is Mus musculus. Put plainly: Selectivity ratio of IC50 for YFP-tagged mouse TRPC7 expressed in thapsigargin treated HEK293 cells to IC50 for mouse TRPC5 expressed in thapsigargin treated HEK293/TREx cells. The test is classed as cell-based.
The target in test [5] is Transient receptor potential cation channel subfamily V member 4 (Mus musculus, UniProt Q9EPK8). Put plainly: Inhibition of YFP-tagged mouse TRPV4 expressed in HEK293 cells assessed as reduction in calcium level by fluo-4 dye based fluorescence assay. The test is classed as cell-based.
Transient receptor potential cation channel subfamily V member 4, sequence (Q9EPK8 whole entry): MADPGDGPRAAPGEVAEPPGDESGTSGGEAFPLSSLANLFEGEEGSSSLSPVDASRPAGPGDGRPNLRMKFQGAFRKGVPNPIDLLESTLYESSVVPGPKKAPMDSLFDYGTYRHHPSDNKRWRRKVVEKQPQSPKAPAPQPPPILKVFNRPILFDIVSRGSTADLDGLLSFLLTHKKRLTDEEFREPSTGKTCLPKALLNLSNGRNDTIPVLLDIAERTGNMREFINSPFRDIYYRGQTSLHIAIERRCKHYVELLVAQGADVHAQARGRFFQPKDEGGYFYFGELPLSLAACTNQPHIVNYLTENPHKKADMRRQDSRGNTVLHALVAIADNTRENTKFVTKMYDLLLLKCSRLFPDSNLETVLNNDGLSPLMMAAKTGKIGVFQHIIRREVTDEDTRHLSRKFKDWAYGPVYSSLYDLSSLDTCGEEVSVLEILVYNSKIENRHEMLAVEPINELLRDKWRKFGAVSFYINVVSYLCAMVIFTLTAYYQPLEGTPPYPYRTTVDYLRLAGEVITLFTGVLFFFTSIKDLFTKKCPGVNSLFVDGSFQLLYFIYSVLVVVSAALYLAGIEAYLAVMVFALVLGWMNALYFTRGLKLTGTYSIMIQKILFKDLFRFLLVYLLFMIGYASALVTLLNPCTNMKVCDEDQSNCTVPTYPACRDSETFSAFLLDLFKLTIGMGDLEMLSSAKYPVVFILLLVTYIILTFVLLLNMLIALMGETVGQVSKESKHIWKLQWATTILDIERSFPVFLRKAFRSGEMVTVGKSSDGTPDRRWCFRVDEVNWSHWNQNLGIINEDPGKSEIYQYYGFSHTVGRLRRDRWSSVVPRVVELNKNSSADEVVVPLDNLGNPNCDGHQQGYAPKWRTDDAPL
Test [6] concerns the target Transient receptor potential cation channel subfamily V member 1 (Rattus norvegicus, UniProt O35433). Briefly: Inhibition of CFP-tagged rat TRPV1 expressed in HEK293 cells assessed as reduction in calcium level by fluo-4 dye based fluorescence assay. It is filed as cell-based.
Test [7] addresses Heat sensitive channel TRPV3 (Rattus norvegicus, UniProt Q4QYD9). Put plainly: Inhibition of YFP-tagged rat TRPV3 expressed in HEK293 cells assessed as reduction in calcium level by fluo-4 dye based fluorescence assay. It is filed as cell-based.
Test [8] has as its target Short transient receptor potential channel 7 (Homo sapiens, UniProt Q9HCX4). Put plainly: Inhibition of human TRPC7 expressed in HEK293 cells assessed as reduction in OAG-induced calcium influx after 10 mins by fluo-4/AM dye based FLIPR assay. The test is classed as cell-based.
The target in test [9] is T1, Short transient receptor potential channel 5. Put plainly: Inhibition of mouse TRPC5 by FLIPR assay.

Short transient receptor potential channel 7, sequence (Q9HCX4 whole entry): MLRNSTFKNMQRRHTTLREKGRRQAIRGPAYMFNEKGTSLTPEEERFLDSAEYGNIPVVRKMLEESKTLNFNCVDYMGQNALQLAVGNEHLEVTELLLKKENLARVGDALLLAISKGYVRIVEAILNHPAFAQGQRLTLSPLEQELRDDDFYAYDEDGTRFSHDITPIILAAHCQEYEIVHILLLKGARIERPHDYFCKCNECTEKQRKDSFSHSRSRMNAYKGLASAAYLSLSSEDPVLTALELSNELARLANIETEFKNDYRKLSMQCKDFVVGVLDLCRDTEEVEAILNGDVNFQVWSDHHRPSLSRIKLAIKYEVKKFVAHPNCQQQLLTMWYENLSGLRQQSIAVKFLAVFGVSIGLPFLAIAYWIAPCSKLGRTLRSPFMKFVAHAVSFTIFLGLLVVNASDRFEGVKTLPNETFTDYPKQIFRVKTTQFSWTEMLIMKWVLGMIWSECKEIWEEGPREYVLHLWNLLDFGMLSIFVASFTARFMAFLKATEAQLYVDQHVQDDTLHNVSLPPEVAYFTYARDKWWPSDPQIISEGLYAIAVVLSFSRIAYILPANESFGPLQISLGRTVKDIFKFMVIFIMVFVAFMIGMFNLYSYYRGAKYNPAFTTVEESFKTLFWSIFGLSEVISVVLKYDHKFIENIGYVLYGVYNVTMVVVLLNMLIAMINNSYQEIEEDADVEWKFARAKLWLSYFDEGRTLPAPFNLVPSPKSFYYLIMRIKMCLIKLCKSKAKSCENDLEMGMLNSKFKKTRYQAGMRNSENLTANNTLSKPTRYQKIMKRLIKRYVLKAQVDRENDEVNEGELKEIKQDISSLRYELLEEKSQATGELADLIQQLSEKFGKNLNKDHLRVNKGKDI
Heat sensitive channel TRPV3, sequence (Q4QYD9 whole entry): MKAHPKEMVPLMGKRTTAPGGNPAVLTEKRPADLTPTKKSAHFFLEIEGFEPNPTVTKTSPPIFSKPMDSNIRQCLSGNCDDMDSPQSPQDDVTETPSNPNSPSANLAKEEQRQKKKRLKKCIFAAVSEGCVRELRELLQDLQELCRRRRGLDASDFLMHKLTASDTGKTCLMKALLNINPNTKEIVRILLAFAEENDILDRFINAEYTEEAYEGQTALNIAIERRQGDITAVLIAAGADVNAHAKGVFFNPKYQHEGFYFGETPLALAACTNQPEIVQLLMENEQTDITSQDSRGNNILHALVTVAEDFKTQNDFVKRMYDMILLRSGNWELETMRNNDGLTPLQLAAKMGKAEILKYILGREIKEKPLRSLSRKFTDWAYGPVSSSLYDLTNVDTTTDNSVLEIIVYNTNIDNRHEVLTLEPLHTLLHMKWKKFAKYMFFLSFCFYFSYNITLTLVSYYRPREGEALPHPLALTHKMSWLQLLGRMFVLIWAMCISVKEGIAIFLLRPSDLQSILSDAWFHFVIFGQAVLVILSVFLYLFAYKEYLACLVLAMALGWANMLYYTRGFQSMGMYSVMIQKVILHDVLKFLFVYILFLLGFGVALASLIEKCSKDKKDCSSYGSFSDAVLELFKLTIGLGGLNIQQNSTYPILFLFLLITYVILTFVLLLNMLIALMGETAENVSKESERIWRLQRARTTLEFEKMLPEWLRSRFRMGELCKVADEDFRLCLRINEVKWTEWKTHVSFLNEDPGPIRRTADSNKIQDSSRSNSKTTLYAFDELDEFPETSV
Transient receptor potential cation channel subfamily V member 1, sequence (O35433 whole entry): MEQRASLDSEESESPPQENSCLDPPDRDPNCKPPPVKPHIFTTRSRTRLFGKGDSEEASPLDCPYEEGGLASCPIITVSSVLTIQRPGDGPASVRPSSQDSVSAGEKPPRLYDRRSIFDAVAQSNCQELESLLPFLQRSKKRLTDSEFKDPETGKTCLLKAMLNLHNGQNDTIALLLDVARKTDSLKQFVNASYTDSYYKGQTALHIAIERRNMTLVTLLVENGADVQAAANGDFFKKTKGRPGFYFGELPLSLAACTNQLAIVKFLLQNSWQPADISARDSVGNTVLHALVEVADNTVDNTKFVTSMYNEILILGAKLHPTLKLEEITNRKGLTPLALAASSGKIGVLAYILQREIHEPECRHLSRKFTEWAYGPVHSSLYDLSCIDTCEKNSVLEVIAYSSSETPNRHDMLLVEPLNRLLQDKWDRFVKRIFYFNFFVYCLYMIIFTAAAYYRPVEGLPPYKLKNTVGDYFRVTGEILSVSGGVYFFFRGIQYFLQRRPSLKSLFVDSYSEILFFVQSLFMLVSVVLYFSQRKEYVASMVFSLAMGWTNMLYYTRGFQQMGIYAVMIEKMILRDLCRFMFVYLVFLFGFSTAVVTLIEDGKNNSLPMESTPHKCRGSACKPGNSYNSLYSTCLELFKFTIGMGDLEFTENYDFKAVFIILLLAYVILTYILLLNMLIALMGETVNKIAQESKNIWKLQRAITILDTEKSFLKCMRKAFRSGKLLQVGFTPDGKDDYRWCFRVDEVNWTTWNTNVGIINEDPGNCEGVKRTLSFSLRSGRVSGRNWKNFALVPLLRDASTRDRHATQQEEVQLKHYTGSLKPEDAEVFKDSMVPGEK

A word on the IC50: it is the point on the concentration scale where inhibition reaches its midpoint. On to `Clc1ccc(Cn2c(CN3CCCC3)nc3ccccc32)cc1` [CLEMIZOLE], for which the half-inhibitory concentration (IC50) was 1.1 µM in test [1], above 20 µM in [5], above 20 µM in test [6] and above 20 µM in test [7]. Moreover, the Ratio IC50 in test [2], in test [3] and in [4] was 10 in each case.
Take `N#Cc1ccc(O[C@@H]2c3ccccc3C[C@H]2N2CCC[C@@H](N)C2)c(Cl)c1`: the half-inhibitory concentration (IC50) is 0.226 µM in test [8] and above 10 µM in test [9].
